Measured values published in patent publication US20250312469A1 (CANGET BIOTEKPHARMA, priority 2024, published 2025).

How the values were obtained:
Agrin mRNA = assay: Real-time RT-PCR of Agrin mRNA in Panc-1 and MiaPaca2 cells; type: cell-based, human
Description: Real time quantitative (q) RT-PCR: Real time RT-PCR methods were described previously (9, 56). Pertinent to this study, total RNAs were extracted from cancer cells using TRI REAGENT RT (Molecular Research Center), and 5 μg per sample was converted to cDNA with anchored oligo (dT) primers using RevertAid First Strand cDNA Synthesis Kit (Thermo Fisher Scientific, Catalog No. K1622) following the manufacturer's instructions. Individual reverse transcription (RT) reactions of 20 μL were then diluted to 200 μL with sterile H2O. Five microliters of diluted RT reaction were used for real-time qPCR using Maxima SYBR Green/ROX qPCR Master Mix (2×, Thermo Fisher Scientific, Catalog No. K0223). The primers used in qPCR were as follows: 5′-GGC GCA CAG CAC AAG AGG-3′ (DDX5 qPCR-F, forward) and 5′-ATGGCAGGAAGCAAATAAGACAA-3′ (DDX5 qPCR-R, reverse); 5′-CTTCTGCTTCAAGGAGCTGGAAG-3′ (hsv5p2, survivin, forward) and 5′-GCACTTTCTTCGCAGTTTCCTC-3′ (hvs3p2, survivin, reverse); 5′-CCACAGCAAACCTCCTCACAG-3′ (myc5, c-Myc, forward) and 5′-GCAGGATAGTCCTTCCGAGTG-3′ (myc3, c-Myc, reverse); 5′-GTCTCCTCTGACTTCAACAGCG-3′ (hGAPDH-5, forward) and 5′-ACCACCCTGTTGCTGTAGCCAA-3′ (hGAPDH-3, reverse). GAPDH was used as an internal control. […] The data were analyzed using the Applied Biosystems 7300 Real Time PCR System and normalized to GAPDH.

Whole blood stability = type: in vitro ADME, human
Description: Both matrices were adjusted to pH 7.4 prior to initiating the experiments. A DMSO stock as first prepared for the test article. […] The vials were kept in a benchtop Thermomixer for the duration of the experiment. Aliquots (100 μL) were taken at each time point (0, 15, 30, 60, and 120 minutes) and added to 96-well plates which had been pre-filled with 300 μL of acetonitrile (ACN). Samples were stored at 4° C. until the end of the experiment. […] Analytical conditions are outlined in Appendix 1.

[1] = Rat toxicology/MTD, limited numbers, FL118-HPβCD complex powder suspension (Roswell Park); conditions: for MTD at 50 days: Sprague-Dawley, rat, in vivo, po, conservative MTD; for BASO / EOS / HCT / HGB / LYM / MCH / MCHC / MCV / MONO / MPV / NEUT / PDW / PLT / RBC / RDW-SD / RET / WBC / ALB / ALP / ALT / AMYL / BUN / CHOL / CREA / Ca / GLU / Na / PHOS / TBIL / TP: rats, oral; for ALB / ALP / ALT / AMYL / BUN / CHOL / CREA / Ca / GLU / Na / PHOS / TBIL / TP: serum
Description: Males and females housed separately in autoclaved polycarbonate/polysulfone microisolator cages (≤2 per cage) with autoclaved contact bedding. Environmental conditions in the animal housing room were maintained at an ambient temperature of 70° F.±3° F., relative humidity of 30%-70%, and a 12:12 light-dark cycle. Animal housing rooms were ventilated with 100% fresh, HEPA filtered air with 10-15 air changes per hour. […] Individual rats were identified via tail marking prior to dosing. Each rat received a unique identification number.
Rats were randomly assigned to 4 treatment groups consisting of 2 males and 2 females, and 1 male and 1 female for the vehicle control group.
In accordance with the Roswell Park Laboratory Animal Shared Resources (LASR) SOP, Physical examination was conducted on all rats' pre-study to evaluate general appearance, posture, behavioral status, respiratory system, skin, fur, eyes, nose, urine, feces, locomotion, and body orifices. Cage side clinical observations of experimental rats for mortality and signs of pharmacologic and/or toxicologic effects were conducted once daily in the morning on Days 1-50 of the study. Daily cage side clinical observations included but were not limited to evaluation of the general appearance, posture, behavioral status, respiratory system, skin, fur, eyes, nose, urine, feces, locomotion, and body orifices. The nature, onset, severity, and duration of all gross or visible pharmacologic or toxicologic signs were recorded. Rats were weighed and weights were recorded immediately prior to dosing, and then twice weekly and at termination, using a digital scale (Ohaus CS 2000 balance). […] Any rats in poor health were identified for further monitoring or possible euthanasia. Food consumption was qualitatively assessed daily and recorded. […] Blood samples were placed in pre-labeled serum separator tubes and in K3EDTA plastic tubes, and tightly capped. […] The following tests were conducted.
Clinical hematology: Blood samples were collected into tubes containing K3EDTA. Whole blood samples were stored on wet ice or under refrigeration (4° C.) until they were processed the same day using the IDEXX ProCyte A5088 Hematology Analyzer. The following hematopoietic parameters were evaluated for the whole blood: (1) Red Blood Cell Count (RBC, M/μL), (2) Hemoglobin (HGB, g/dL), (3) Hematocrit (HCT, %), (4) Mean Cell Volume (MCV, fL), (5) Mean Corpuscular Hemoglobin (MCH, pg), (6) Mean Corpuscular Hemoglobin Concentration (MCHC, g/dL), (7) Red Cell Distribution Width (RDW, %), (8) Reticulocytes, absolute (RET, K/μL), (9) Reticulocytes, relative (RET, %), (10) Platelet count (PLT, K/μL), (11) White Blood Cell Count (WBC, K/μL), (12) White Blood Cell Count Differential, absolute (WBCDa, L/μL), and (13) White Blood Cell Count Differential, relative (WBCDr, %).
Clinical chemistry: Blood samples were collected into serum separator tubes. Blood samples were stored at room temperature until they were centrifuged, and serum was removed. Samples were centrifuged at 3000 RPM for 15 minutes at ambient temperature.

CCC1(O)C(=O)OCc2c1cc1n(c2=O)Cc2cc3cc4c(cc3nc2-1)OCO4 (centres unmarked) [FL118]
Agrin mRNA (Agrin mRNA): inhibits Agrin mRNA
half-life (Whole blood stability; 0.5 μM): long half-life
Percent Remaining (Whole blood stability; Human Whole Blood, 0 min): 100%
Percent Remaining (Whole blood stability; Human Whole Blood, 15 min): 108%
Percent Remaining (Whole blood stability; Human Whole Blood, 30 min): 68%
Percent Remaining (Whole blood stability; Human Whole Blood, 60 min): 61%
Percent Remaining (Whole blood stability; Human Whole Blood, 120 min): 35%
half-life at 0.5 μM (Whole blood stability; both sexes, whole blood (sodium heparin), pH 7.4, Human Whole Blood): 74 min
gross pathology ([1]; all doses): no obvious FL118-related gross pathology macroscopic findings
clinical signs, female rats ([1]; all treatment groups): no serious adverse clinical signs
weight loss, female rats ([1]; all treatment groups): ≤ 10%
MTD at 50 days ([1]; female, female rats): ≤ 4.77 mg/kg
MTD at 50 days ([1]; male, male rats): ≥ 2.44 mg/kg
BASO ([1]; 1.56 mg/kg): 0.01-0.02 K/μL
EOS ([1]; 1.56 mg/kg): 0.04-0.07 K/μL
HCT ([1]; 1.56 mg/kg): 44.5-50.5%
HGB ([1]; 1.56 mg/kg): 14.2 to 16 g/dL
LYM ([1]; 1.56 mg/kg): 5.56-8.7 K/μL
MCH ([1]; 1.56 mg/kg): 17.8 to 18.6 pg
MCHC ([1]; 1.56 mg/kg): 31.2 to 32.1 g/dL
MCV ([1]; 1.56 mg/kg): 56.1 to 58.6 fL
MONO ([1]; 1.56 mg/kg): 0.19-0.58 K/μL
MPV ([1]; 1.56 mg/kg): 7.9 to 8.1 fL
NEUT ([1]; 1.56 mg/kg): 0.38-1.37 K/μL
PDW ([1]; 1.56 mg/kg): 9.2 to 10 fL
PLT ([1]; 1.56 mg/kg): 864-1070 K/μL
RBC ([1]; 1.56 mg/kg): 7.67-8.73 M/μL
RDW-SD ([1]; 1.56 mg/kg): 30 to 33.7 fL
RET ([1]; 1.56 mg/kg): 401-524 K/μL
WBC ([1]; 1.56 mg/kg): 6.5-10.7 K/μL
BASO ([1]; 3.05 mg/kg): 0.01-0.04 K/μL
EOS ([1]; 3.05 mg/kg): 0.02-0.1 K/μL
HCT ([1]; 3.05 mg/kg): 34.6-46.5%
HGB ([1]; 3.05 mg/kg): 11.8 to 14.8 g/dL
LYM ([1]; 3.05 mg/kg): 4.83-6.03 K/μL
MCH ([1]; 3.05 mg/kg): 18.4 to 19.2 pg
MCHC ([1]; 3.05 mg/kg): 31.8 to 34.1 g/dL
MCV ([1]; 3.05 mg/kg): 55.6 to 57.8 fL
MONO ([1]; 3.05 mg/kg): 0.09-0.43 K/μL
MPV ([1]; 3.05 mg/kg): 7.6 to 7.8 fL
NEUT ([1]; 3.05 mg/kg): 0.92-1.42 K/μL
PDW ([1]; 3.05 mg/kg): 9.4 to 9.9 fL
PLT ([1]; 3.05 mg/kg): 665-1259 K/μL
RBC ([1]; 3.05 mg/kg): 6.15-8.04 M/μL
RDW-SD ([1]; 3.05 mg/kg): 29.3 to 35.3 fL
RET ([1]; 3.05 mg/kg): 208-625 K/μL
WBC ([1]; 3.05 mg/kg): 6.0-7.9 K/μL
ALB ([1]; 1.56 mg/kg): 3.4 to 4.4 g/dL
ALP ([1]; 1.56 mg/kg): 111-239 U/L
ALT ([1]; 1.56 mg/kg): 63-134 U/L
AMYL ([1]; 1.56 mg/kg): 1547-2358. U/L
BUN ([1]; 1.56 mg/kg): 15 to 20 mg/dL
CHOL ([1]; 1.56 mg/kg): 89 to 111 mg/dL
CREA ([1]; 1.56 mg/kg): 0.1 to 0.5 mg/dL
Ca ([1]; 1.56 mg/kg): 11.2 to 11.6 mg/dL
GLU ([1]; 1.56 mg/kg): 206 to 296 mg/dL
Na ([1]; 1.56 mg/kg): 143 to 154 mmol/L
PHOS ([1]; 1.56 mg/kg): 10.8 to 13.2 mg/dL
TBIL ([1]; 1.56 mg/kg): 0.2 to 0.8 mg/dL
TP ([1]; 1.56 mg/kg): 6.2 to 6.7 g/dL
ALB ([1]; 3.05 mg/kg): 3.6 to 4.3 g/dL
ALP ([1]; 3.05 mg/kg): 37-168 U/L
ALT ([1]; 3.05 mg/kg): 85-111 U/L
AMYL ([1]; 3.05 mg/kg): 1614-2162. U/L
BUN ([1]; 3.05 mg/kg): 15 to 21 mg/dL
CHOL ([1]; 3.05 mg/kg): 38 to 87 mg/dL
CREA ([1]; 3.05 mg/kg): 0.1 to 0.5 mg/dL
Ca ([1]; 3.05 mg/kg): 11.3 to 11.9 mg/dL
GLU ([1]; 3.05 mg/kg): 282 to 438 mg/dL
Na ([1]; 3.05 mg/kg): 147 to 154 mmol/L
PHOS ([1]; 3.05 mg/kg): 4.1 to 10.5 mg/dL
TBIL ([1]; 3.05 mg/kg): 0.3 to 0.7 mg/dL
TP ([1]; 3.05 mg/kg): 5.4 to 6.3 g/dL
mortality ([1]; weekly oral gavage, 7 doses): No mortality occurred
